The text below walks through data of US6660837B1, “Modified protein derived from protein kinase N” (Kirin Beer Kabushiki Kaisha, priority 1995, dated 2003).

Assay [1] relates to head-rod domain of NF subunit (NFL, NFM, NFH). Kind of assay: Yeast two-hybrid, PKN N-terminal region with NF head-rod domains. Format: binding. The following applies: lacZ expression. On the procedure:
Specificity of the interaction between PKN and various NFs was investigated by measuring the ability of the two-hybrid constructs, pBTM116(Vojtek, A. B. et al., Cell, 74, 205-214 (1993)) (instead of pGBT9)-PKN and pVP16 (Vojtek, A. B. et al., Cell, 74, 205-214 (1993)) (instead of pGAD10)-NF or in reverse, to support lacZ expression in L40 cells.
Yeast expression vectors were prepared as follows. Yeast expression vector pVP/NFL#21 for the VP16 transcription activation domain-head-rod domain of human NFL was made by subcloning a EcoRI insert (amino acid sequence 1-349) of a library plasmid #21 originally isolated from two-hybrid screening into pVP16 vector (Vojtek, A. B. et al., Cell, 74, 205-214 (1993)). Yeast expression vectors for the VP16 transcription activation domain—tail domain of NFL and NFH or the VP16 transcription activation domain—head-rod domain or tail domain of NFM were constructed by subcloning BamHI/NotI insert of pGST/NFLt, pGST/NFHt, pGST/NFMhr, and pGST/NFMt (described in Example 8) into pVP16 in frame, respectively (designated respectively as pVP/NFLt, pVP/NFHt, pVP/NFMhr, and pVP/NFMt). […]

Assay [2] deals with T1, carboxyl-terminal catalytic region of PKN (Homo sapiens, UniProt Q16512).
T1 construct: made in house; host or cells: in vitro translation in reticulocyte lysate (Promega)
Kind of assay: In vitro binding, regulatory with catalytic region of PKN (GST pull-down). An excerpt: Truncated human PKN was made as follows; expression vector pPKN-N for amino-terminal region of PKN was made by digesting phPKN-H4 (human PKN cDNA inserted in pBluescript II SK) (Mukai, H. & Ono, Y., Biochem. Biophys. Res. Commun. 199, 897-904 (1994)) with BstEII, and filling-in both the ends with T4 DNA polymerase, and self-ligation. The resulting plasmid codes for amino acid residues of PKN from 1 to 474 in SEQ ID NO: 1. cDNA insert from this plasmid was cloned into pRc/CMV (Invitrogen Corp.). Fragment coding for the amino acids 614-942, in SEQ ID NO: 1, containing the catalytic domain of human PKN was made by PCR amplification. Expression vector pPKN-C for the carboxyl-terminal region of PKN was made by subcloning this fragment into pRc/CMV. These plasmids were linealized by cutting with XbaI, and cRNA was transcribed using T7 RNA polymerase. cRNA was translated in a […] reticulocyte lysate (Promega) in the presence of [^35S] methionine. […]
In vitro translated PKN-N or PKN-C (2.5 μl) was mixed with 5 μg of each GST-PKN-N or GST-PKN-C fusion protein or 25 μg of GST alone in 400 μl of GST binding buffer [20 mM Tris/HCl (pH 7.5), 0.5 mM DTT, 150 mM NaCl, 0.05% Triton X-100, 1 mM EDTA, 1 μg/ml leupeptin] and incubated for 1 hr at 4° C. […] Quantification of the binding reactions was carried out by a BAS 1000 bio-imaging analyzer (FUJI).

T1 sequence (Q16512 614-942): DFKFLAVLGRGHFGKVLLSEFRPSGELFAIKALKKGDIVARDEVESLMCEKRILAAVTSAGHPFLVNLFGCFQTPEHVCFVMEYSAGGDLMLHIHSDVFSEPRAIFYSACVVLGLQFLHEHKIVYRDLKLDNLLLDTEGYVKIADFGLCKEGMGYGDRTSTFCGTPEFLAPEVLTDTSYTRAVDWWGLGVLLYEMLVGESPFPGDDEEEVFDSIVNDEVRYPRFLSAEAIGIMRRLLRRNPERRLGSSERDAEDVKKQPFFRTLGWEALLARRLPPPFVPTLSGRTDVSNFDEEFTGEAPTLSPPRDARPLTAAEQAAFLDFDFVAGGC

In the case of “N-terminal region of PKN: N-terminal regulatory region of human PKN: 1-540 (PKNN1) in two-hybrid and GST fusions, 1-474 when in vitro translated”, the “binding to head-rod domain of each NF subunit in two-hybrid system” value in assay [1] is reported as “bound”. Also, the “binding to carboxyl-terminal catalytic region of PKN in vitro” value in assay [2] is “directly binds”.
